The term inhibition denotes the change of the read-out against control, counted positive when it falls. Low readings indicate a weak effect, high ones a strong effect.

“Also recorded” adds a separate entry of the source.

In one series the target is T1, mNaV1.2 (Mus musculus, UniProt B1AWN6).
T1 construct: NaV1.2 currents from N1E-115 cells; host or cells: N1E-115 mouse neuroblastoma
Put plainly: NaV1.2 current inhibition (N1E-115 cells). It counts as cell-based.

For a further series, the system named is wild-type mice. The experiment in a line: Telemetry of blood pressure and heart rate in wild-type mice. The class given is in vivo. To be noted: for mean arterial blood pressure: FIG. 6A. How it is done:
Telemetry. […] . […] . […] . […] . Maximal injection volume was ≤600 μl. […] . […] Data were analyzed using the DSI software.
. […] . The blood pressure drop was accompanied by a severe reduction of heart rate (HR) by ˜400 bpm (FIG. 6A left). To avoid fatal hypothermia or circulatory collapse, we handled these severely bradycardic mice for ˜2 h and increased RT to 34° C. As shown in FIG. 6A these maneuvers increased MAP transiently, presumably because of a sympathetic input on total peripheral resistance, but not HR and the low HR persisted over another 10 h before the mice slowly recovered (FIG. 6A left). […] However, this drop was more transient and lasted for ˜3 h.

Another series addresses T2, hKV2.1 (Homo sapiens, UniProt Q14721).
T2 construct: host or cells: HEK293
The experiment in a line: KV2.1 current inhibition (HEK293). It counts as cell-based. The source says:
Cells, Cell lines and Clones. HEK-293 cells stably expressing hKCa2.1, rKCa2.2 and hKCa3.1 were obtained from Khaled Houamed (University of Chicago, Ill.) in 2002 and have been maintained in the Wulff laboratory at the University of California since then. The cloning of hKCa2.3 (19 CAG repeats) and hKCa3.1 has been previously described (Wulff et al., 2000). The hKCa2.3 clone was later stably expressed in COS-7 cells at Aurora Biosciences Corp., San Diego, Calif. […]
Electrophysiology. […] For manual experiments COS-7, HEK-293 or L929 cells were trypsinized, plated onto poly-L-lysine coated coverslips and typically recorded from between 20 min and 4 h after plating. […] Free Ca^2+ concentrations were calculated with MaxChelator assuming a temperature of 25° C., a pH of 7.2 and an ionic strength of 160 mM. To reduce contaminating currents from native chloride channels in COS-7 cells, KCa2.3 currents were recorded with an internal pipette solution containing (in mM): 145 K^+ aspartate, 2 MgCl2, 10 HEPES, 10 EGTA and 7.4 CaCl2 (500 nM free Ca^2+), pH 7.2, 290-310 mOsm. […] KV2.1, Kv1.3, and KV3.1 currents were recorded in normal Ringer solution with a Ca^2+-free KF-based pipette solution as previously described (Schmitz et al., 2005). HERG (KV11.1) currents were recorded with a 2-step pulse from −80 mV first to 20 mV for 1 sec and then to −50 mV for 1 sec. […]

Series [1] relates to porcine coronary arteries. Put plainly: Isometric myography on porcine coronary arteries, bradykinin-induced EDH-type relaxation. To be noted: compound 1 μM; for BK (1 μM)-induced relaxation potentiated to: U46619-precontracted, L-NNA and indomethacin.
Excerpt: Isometric Myography on Porcine Coronary Arteries (PCA). PCA were carefully dissected from hearts kindly provided by the local abattoir (Mercazaragoza, Zaragoza, Spain), cleaned of fat and connective tissue, and cut into 3-4 mm rings. Rings were mounted on hooks connected to an isometric force transducer (Pioden UF1, Graham Bell House, Canterbury, UK) and were pre-stretched to an initial tension of 1 g. […] Changes in tension were registered using a Mac Lab System/8e program (AD Instruments Inc., Milford, Mass.). The buffer contained the NO-synthase blocker, Nω-nitro-L-arginine (L-NNA, 300 μM), and the cyclooxygenase blocker indomethacin (10 μM) in order to measure EDH-type relaxation. […] After washout, rings were contracted with a high KCl buffer (60 mM) to determine maximal contraction. […] UCL1684 and U46619 were purchased from Tocris (Wiesbaden-Nordenstadt, Germany). Data analysis: EDH-type relaxations were determined as % change of U46619 contraction and are shown relative to the totally relaxed state (w/o U46619).

T1 sequence (B1AWN6 whole entry): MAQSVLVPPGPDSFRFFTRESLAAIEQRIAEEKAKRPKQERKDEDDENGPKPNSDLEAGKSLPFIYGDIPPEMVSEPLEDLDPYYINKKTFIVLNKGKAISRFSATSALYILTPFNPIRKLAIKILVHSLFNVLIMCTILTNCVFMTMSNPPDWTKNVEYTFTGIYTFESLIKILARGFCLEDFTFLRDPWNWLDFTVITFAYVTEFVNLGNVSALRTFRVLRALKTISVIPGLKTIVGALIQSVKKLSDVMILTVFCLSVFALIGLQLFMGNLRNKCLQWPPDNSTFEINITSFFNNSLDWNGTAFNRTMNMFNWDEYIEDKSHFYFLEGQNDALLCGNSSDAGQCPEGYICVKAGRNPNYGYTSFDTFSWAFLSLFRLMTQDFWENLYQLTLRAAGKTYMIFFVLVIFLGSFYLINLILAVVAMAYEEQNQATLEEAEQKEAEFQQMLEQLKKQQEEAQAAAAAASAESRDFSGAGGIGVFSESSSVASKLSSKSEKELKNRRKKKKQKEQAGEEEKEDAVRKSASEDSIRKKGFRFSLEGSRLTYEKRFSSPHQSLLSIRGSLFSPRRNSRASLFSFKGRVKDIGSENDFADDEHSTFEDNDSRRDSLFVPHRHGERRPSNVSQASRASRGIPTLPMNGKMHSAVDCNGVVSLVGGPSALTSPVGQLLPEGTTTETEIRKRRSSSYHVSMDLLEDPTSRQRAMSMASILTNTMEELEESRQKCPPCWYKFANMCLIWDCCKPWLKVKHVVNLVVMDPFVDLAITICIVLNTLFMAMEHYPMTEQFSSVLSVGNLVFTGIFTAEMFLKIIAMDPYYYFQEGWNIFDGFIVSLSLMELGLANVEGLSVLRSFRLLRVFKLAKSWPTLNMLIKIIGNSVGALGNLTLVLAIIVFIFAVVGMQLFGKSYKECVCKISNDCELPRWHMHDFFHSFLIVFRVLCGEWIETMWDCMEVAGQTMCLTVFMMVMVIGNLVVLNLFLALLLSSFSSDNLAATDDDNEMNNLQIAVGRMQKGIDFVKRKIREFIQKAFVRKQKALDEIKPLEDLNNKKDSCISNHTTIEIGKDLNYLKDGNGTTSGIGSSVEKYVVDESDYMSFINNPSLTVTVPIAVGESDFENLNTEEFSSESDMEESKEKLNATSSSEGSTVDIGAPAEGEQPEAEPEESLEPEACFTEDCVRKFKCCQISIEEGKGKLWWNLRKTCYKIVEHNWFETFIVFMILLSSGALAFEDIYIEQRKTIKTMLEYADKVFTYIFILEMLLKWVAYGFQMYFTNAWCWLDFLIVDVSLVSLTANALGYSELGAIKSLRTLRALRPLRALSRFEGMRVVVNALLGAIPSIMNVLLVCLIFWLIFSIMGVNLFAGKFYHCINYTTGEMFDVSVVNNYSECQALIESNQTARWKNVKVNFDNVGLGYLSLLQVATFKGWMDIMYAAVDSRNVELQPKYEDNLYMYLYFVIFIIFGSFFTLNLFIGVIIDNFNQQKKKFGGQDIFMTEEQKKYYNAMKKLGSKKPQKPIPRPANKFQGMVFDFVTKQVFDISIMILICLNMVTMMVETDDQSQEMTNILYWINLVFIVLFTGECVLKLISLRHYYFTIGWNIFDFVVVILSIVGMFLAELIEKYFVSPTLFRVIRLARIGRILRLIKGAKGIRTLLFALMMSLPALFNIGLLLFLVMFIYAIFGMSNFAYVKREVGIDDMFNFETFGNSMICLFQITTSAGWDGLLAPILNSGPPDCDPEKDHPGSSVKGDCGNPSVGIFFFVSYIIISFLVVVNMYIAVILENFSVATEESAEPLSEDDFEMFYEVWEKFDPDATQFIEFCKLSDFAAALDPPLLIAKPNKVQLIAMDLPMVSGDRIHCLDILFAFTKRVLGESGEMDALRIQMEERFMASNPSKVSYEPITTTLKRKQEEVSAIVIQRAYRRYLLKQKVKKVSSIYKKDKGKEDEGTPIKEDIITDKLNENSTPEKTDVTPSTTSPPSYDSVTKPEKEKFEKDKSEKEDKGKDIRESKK
T2 sequence (Q14721 whole entry): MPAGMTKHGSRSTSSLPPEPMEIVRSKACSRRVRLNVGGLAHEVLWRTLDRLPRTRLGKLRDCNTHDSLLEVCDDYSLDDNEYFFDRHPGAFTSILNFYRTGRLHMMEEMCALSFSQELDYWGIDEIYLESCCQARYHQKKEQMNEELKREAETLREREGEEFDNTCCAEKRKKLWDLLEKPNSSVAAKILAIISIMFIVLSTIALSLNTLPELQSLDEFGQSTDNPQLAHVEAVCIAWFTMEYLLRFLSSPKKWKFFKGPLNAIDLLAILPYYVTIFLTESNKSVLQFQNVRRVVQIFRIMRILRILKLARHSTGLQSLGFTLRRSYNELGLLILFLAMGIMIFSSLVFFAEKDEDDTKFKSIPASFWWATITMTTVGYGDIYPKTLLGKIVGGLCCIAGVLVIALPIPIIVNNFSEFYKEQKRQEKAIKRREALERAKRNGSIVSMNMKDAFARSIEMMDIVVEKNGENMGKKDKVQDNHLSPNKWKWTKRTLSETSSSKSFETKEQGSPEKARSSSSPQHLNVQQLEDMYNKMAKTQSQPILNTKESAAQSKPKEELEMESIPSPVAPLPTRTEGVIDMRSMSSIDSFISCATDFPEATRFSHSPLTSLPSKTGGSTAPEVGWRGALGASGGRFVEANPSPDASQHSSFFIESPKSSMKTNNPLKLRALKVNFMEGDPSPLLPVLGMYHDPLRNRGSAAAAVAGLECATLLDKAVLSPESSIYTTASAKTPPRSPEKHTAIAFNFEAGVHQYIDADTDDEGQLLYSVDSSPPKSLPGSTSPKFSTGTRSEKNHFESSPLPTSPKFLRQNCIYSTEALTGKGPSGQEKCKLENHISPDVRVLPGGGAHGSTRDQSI

On to `Cc1cc2sc(N)nc2c2ccccc12` [SKA-111, 5-methylnaphtho[1,2-d]thiazol-2-amine], for which, at mNaV1.2 (at 25 μM), the inhibition at 25 µM turned out to be 19.5 ± 6.9%. For the same molecule, in the series with wild-type mice (30 mg/kg i.p.), the “MAP” value is on record as “Neither SKA-111 nor SKA-121 caused significant changes; also recorded: did not produce significant alterations”, the “change of HR” value is given as ~−50 bpm and the “duration of HR decrease after injection” value is given as ~2 h. In addition, the “heart rate” value in the series with wild-type mice (30 mg/kg i.p., 2 h after injection) is listed as “moderately reduced heart rate”. Besides, in the series with wild-type mice (100 mg/kg i.p.), the “drop in mean arterial blood pressure (MAP)” value is reported as ~25 mmHg, the “heart rate” value is given as “severely reduced heart rate”, the “reduction of heart rate (HR)” value is reported as ~400 bpm and the “mean arterial blood pressure” value is reported as “reduced mean arterial blood pressure”. The same molecule came in with an inhibition at 25 µM on hKV2.1 (at 25 μM) of 37.3 ± 9%. Moreover, in series [1], the “bradykinin-induced EDH-type relaxation” value is listed as “increased” and the “BK (1 μM)-induced relaxation potentiated to” value is reported as “≈ 200%”.

`Cc1cc2nc(N)oc2c2ccccc12` [SKA-121, 5-Methylnaphtho[2,1-d]oxazol-2-amine] yielded an inhibition at 50 µM against mNaV1.2 (at 50 μM) of 15.2 ± 12.7%. Besides, in the series with wild-type mice (30 mg/kg i.p.), the “MAP” value was “Neither SKA-111 nor SKA-121 caused significant changes; also recorded: did not produce significant alterations”. Besides, in the series on wild-type mice (100 mg/kg i.p.), the “drop in mean arterial blood pressure (MAP)” value is ~20 mmHg; the “duration of MAP drop” value is ~3 h; the “heart rate” value was “not and only moderately reduced”; the “mean arterial blood pressure” value is “reduced mean arterial blood pressure”. On hKV2.1 (at 50 μM), the inhibition at 50 µM stood at 43.2 ± 12.5%. In addition, in series [1], the “bradykinin-induced EDH-type relaxation” value was “increased” and the “BK (1 μM)-induced relaxation potentiated to” value is “≈ 300%”.

These data come from US11173146B2, “Selective activators of the intermediate conductance CA2+activated K+ channel KCa3.1 and their methods of use” (The Regents of the University of California, priority 2014, dated 2021).
